Assays:
HeLa = assay: Antitumor activity against human HeLa cells xenografted in mouse model assessed as tumor growth inhibition at 20 mg/kg treated for 10 days relative to control; type: functional; set-up: scale not given: the % may be the effect or the level left; details: time 10 day
CAL-27 = assay: Inhibition of cell proliferation in human CAL-27 cells at 1uM incubated for 72 hrs by MTT assay relative to control; type: functional

SMILES	Activity (HeLa)	inhibition at 1 µM (CAL-27)
CCOCCNC(=O)/C(C)=C\C[C@@]12OC(C)(C)[C@@H]3C[C@@H](C=C4C(=O)c5c(O)c(C/C=C(\C)CCC=C(C)C)c(O)c(CC=C(C)C)c5O[C@]431)C2=O	70%	
NCC(=O)CCC(=O)O [AMINOLEVULINIC ACID]		75.4%

Source: ChEMBL document CHEMBL5608167, “Nanomaterials-based advanced systems for photothermal / photodynamic therapy of oral cancer” (2024)
